Laboratory results: patent US20260265235A1, “BICYCLOAMINE CARBOXAMIDE DERIVATIVE” (Sumitomo Pharma Co., Ltd., priority 2022, published 2026)

What was measured:
[1] = molecular target: T1, Human orexin receptor type 2 (Homo sapiens, UniProt O43614); test: Test Example 1: agonist activity for orexin receptor type 2 (aequorin luminescence, intracellular calcium mobilization in CHO cells); assay type: cell-based; details: compound 10 μM; relative percentage of luminescence for the luminescence (100%) of Orexin A (100 μM); CHO cells transiently expressing human orexin receptor type 2 and apoaequorin
T1 construct: expressed in transfected cells; host or cells: CHO cells (transient expression, with apoaequorin)
T1 sequence (O43614 1-444): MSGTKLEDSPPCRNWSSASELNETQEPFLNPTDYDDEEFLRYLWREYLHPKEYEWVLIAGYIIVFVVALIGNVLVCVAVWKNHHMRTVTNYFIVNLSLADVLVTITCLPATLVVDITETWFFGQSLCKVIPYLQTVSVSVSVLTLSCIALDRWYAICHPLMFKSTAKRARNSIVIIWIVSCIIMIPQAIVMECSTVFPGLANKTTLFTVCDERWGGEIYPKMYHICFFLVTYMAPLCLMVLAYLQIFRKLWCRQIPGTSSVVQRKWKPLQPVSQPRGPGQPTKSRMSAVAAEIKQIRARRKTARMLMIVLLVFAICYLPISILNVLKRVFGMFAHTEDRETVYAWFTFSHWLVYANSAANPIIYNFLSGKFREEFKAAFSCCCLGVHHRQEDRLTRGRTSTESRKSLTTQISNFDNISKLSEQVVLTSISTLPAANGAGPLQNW
Protocol: Test Example 1: Measurement of Agonist Activity for Orexin Receptor Type 2
(§1) Human orexin receptor type 2 and apoaequorin were transiently expressed in CHO cells, and the agonist activity was evaluated based on intracellular calcium mobilization with ligand stimulation. The CHO cells transiently-expressed human orexin receptor type 2 and apoaequorin were seeded on a 384-well plate by 2,000 cells/well, and then incubated for 16-22 hours. After the plate was returned to room temperature, Coelenterazine hcp (final concentration: 1 μM) was added to the plate, and the plate was allowed to stand at room temperature for 2 hours. And then, Orexin A or each test compound was added to the plate, and the luminescence of the cells was measured with FDSS7000 (Hamamatsu Photonics K.K.), wherein Orexin A and each test compound were dissolved in DMSO (final concentration: 0.1%), and diluted with a buffer (Hanks, 20 mM HEPES, 0.1% BSA). The agonist activity of each test compound for orexin receptor type 2 was calculated as relative percentage of luminescence for the luminescence (100%) of Orexin A (100 μM).
(§2) Each agonist activity of the compounds obtained in Examples (10 μM) for orexin receptor type 2 is shown in the table below as relative percentage of luminescence for the luminescence (100%) of Orexin A (100 μM).

[2] = molecular target: T1, Human orexin receptor type 2; test: Test Example 2: agonist activity for orexin receptor type 2 (aequorin luminescence, intracellular calcium mobilization in CHO cells); assay type: cell-based; details: compound 10 μM; relative percentage of luminescence for the luminescence (100%) of Orexin A (100 μM); CHO cells transiently expressing human orexin receptor type 2 and apoaequorin
Protocol: Test Example 2: Measurement of Agonist Activity for Orexin Receptor Type 2
as §1, with “Orexin A (PEPTIDE INSTITUTE, INC., Lot. 711101) or each” for “Orexin A or each”
as §2

Row | Compound | Agonist Activity (%) [1] [%] | Agonist Activity (%) [2] [%]
1 | CC(C)N1CCN([C@H]2CCCC(F)(F)[C@@H]2NC(=O)N2C[C@H]3C[C@@H](c4ccccc4F)C[C@H]3C2)CC1 [Example 17, (3aR,5R,6aS)—N-{(1R,6S)-2,2-difluoro-6-[4-(propan-2-yl)piperazin-1-yl]cyclohexyl}-5-(2-fluorophenyl)hexahydropenta[c]pyrrole-2(1H)-carboxamide] | 315 | –
2 | CC(C)N1CCN([C@H]2CCCC(F)(F)[C@@H]2NC(=O)N2C[C@@H]3C[C@](C)(c4noc(C5CC5)n4)C[C@@H]3C2)CC1 [Example 6, (3aR,5R,6aS)-5-(5-cyclopropyl-1,2,4-oxadiazol-3-yl)-N-{(1R,6S)-2,2-difluoro-6-[4-(propan-2-yl)piperazin-1-yl]cyclohexyl}-5-methylhexahydropenta[c]pyrrole-2(1H)-carboxamide] | 282 | –
3 | CC(C)N1CCN([C@H]2CCCC(F)(F)[C@@H]2NC(=O)N2C[C@H]3C[C@@H](c4noc(C5CC5)n4)C[C@H]3C2)CC1 [Example 8, (3aR,5R,6aS)-5-(5-cyclopropyl-1,2,4-oxadiazol-3-yl)-N-{(1R,6S)-2,2-difluoro-6-[4-(propan-2-yl)piperazin-1-yl]cyclohexyl}hexahydropenta[c]pyrrole-2(1H)-carboxamide] | 423 | –
4 | CC(C)N1CCN([C@H]2CCCC(F)(F)[C@@H]2NC(=O)N2C[C@@H]3C[C@](C)(c4noc([C@@H]5C[C@@H]5F)n4)C[C@@H]3C2)CC1 [Example 7, (3aR,5R,6aS)—N-{(1R,6S)-2,2-difluoro-6-[4-(propan-2-yl)piperazin-1-yl]cyclohexyl}-5-{5-[(1S,2S)-2-fluorocyclopropyl]-1,2,4-oxadiazol-3-yl}-5-methylhexahydropenta[c]pyrrole-2(1H)-carboxamide] | 328 | –
5 | CC(C)N1CCN([C@H]2CCCC(F)(F)[C@@H]2NC(=O)N2C[C@H]3CC(c4ccccc4)C[C@H]3C2)CC1 (stereo partly drawn) [Example 12, (3aR,5S,6aS)—N-{(1R,6S)-2,2-difluoro-6-[4-(propan-2-yl)piperazin-1-yl]cyclohexyl}-5-phenylhexahydropenta[c]pyrrole-2(1H)-carboxamide] | 492 | –
6 | CC(C)N1CCN([C@H]2CCCC(F)(F)[C@@H]2NC(=O)N2CC[C@H]3C[C@H](c4noc(C5CC5)n4)[C@H]3C2)CC1 [Example 5] | 79 | –
7 | CC(C)N1CCN([C@H]2CCCC(F)(F)[C@@H]2NC(=O)N2C[C@H]3C[C@@H](c4ccccc4)C[C@H]3C2)CC1 [Example 9, (3aR,5R,6aS)—N-{(1R,6S)-2,2-difluoro-6-[4-(propan-2-yl)piperazin-1-yl]cyclohexyl}-5-phenylhexahydropenta[c]pyrrole-2(1H)-carboxamide] | 424 | –
8 | CC(C)N1CCN([C@H]2CCCC(F)(F)[C@@H]2NC(=O)N2C[C@@H]3[C@H](C2)[C@H]3c2noc(C3CC3)n2)CC1 [Example 3, (1R,5S,6R)-6-(5-cyclopropyl-1,2,4-oxadiazol-3-yl)-N-{(1R,6S)-2,2-difluoro-6-[4-(propan-2-yl)piperazin-1-yl]cyclohexyl}-3-azabicyclo[3.1.0]hexane-3-carboxamide] | 217 | –
9 | CC(C)N1CCN([C@H]2CCCC(F)(F)[C@@H]2NC(=O)N2C[C@@H]3[C@H](C2)[C@@H]3c2noc(C3CC3)n2)CC1 [Example 4, (1R,5S,6S)-6-(5-cyclopropyl-1,2,4-oxadiazol-3-yl)-N-{(1R,6S)-2,2-difluoro-6-[4-(propan-2-yl)piperazin-1-yl]cyclohexyl}-3-azabicyclo[3.1.0]hexane-3-carboxamide] | 15 | –
10 | CC(C)N1CCN([C@H]2CCCC(F)(F)[C@@H]2NC(=O)N2C[C@H]3C[C@H](c4noc([C@@H]5C[C@@H]5F)n4)C[C@H]3C2)CC1 [Example 2, (3aR,5S,6aS)—N-{(1R,6S)-2,2-difluoro-6-[4-(propan-2-yl)piperazin-1-yl]cyclohexyl}-5-{5-[(1S,2S)-2-fluorocyclopropyl]-1,2,4-oxadiazol-3-yl}hexahydropenta[c]pyrrole-2(1H)-carboxamide] | 275 | –
11 | CC(C)N1CCN([C@H]2CCCC(F)(F)[C@@H]2NC(=O)N2C[C@@H]3CN(c4ccccc4)C[C@@H]3C2)CC1 [Example 11, (3aR,6aS)—N-{(1R,6S)-2,2-difluoro-6-[4-(propan-2-yl)piperazin-1-yl]cyclohexyl}-5-phenylhexahydropyrrolo[3,4-c]pyrrole-2(1H)-carboxamide] | 477 | –
12 | Cc1ccc([C@@H]2C[C@@H]3CN(C(=O)N[C@@H]4[C@@H](N5CCN(C(C)C)CC5)CCCC4(F)F)C[C@@H]3C2)cc1 [Example 13, (3aR,5R,6aS)—N-{(1R,6S)-2,2-difluoro-6-[4-(propan-2-yl)piperazin-1-yl]cyclohexyl}-5-(4-methylphenyl)hexahydropenta[c]pyrrole-2(1H)-carboxamide] | 466 | –
13 | CC(C)N1CCN([C@H]2CCCC(F)(F)[C@@H]2NC(=O)N2C[C@H]3CC(c4ccccc4)=C[C@H]3C2)CC1 [Example 10] | 450 | –
14 | CC(C)N1CCN([C@H]2CCCC(F)(F)[C@@H]2NC(=O)N2C[C@H]3C[C@H](c4noc(C5CC5)n4)C[C@H]3C2)CC1 [Example 1, (3aR,5S,6aS)-5-(5-Cyclopropyl-1,2,4-oxadiazol-3-yl)-N-{(1R,6S)-2,2-difluoro-6-[4-(propan-2-yl)piperazin-1-yl]cyclohexyl}hexahydropenta[c]pyrrole-2(1H)-carboxamide] | 375 | –

More lines, now with the values ahead:

Row | Agonist Activity (%) [1] [%] | Agonist Activity (%) [2] [%] | Compound
15 | 511 | – | CC(C)N1CCN([C@H]2CCCC(F)(F)[C@@H]2NC(=O)N2C[C@H]3C[C@@H](c4ccc(F)cc4)C[C@H]3C2)CC1 [Example 15, (3aR,5R,6aS)—N-{(1R,6S)-2,2-difluoro-6-[4-(propan-2-yl)piperazin-1-yl]cyclohexyl}-5-(4-fluorophenyl)hexahydropenta[c]pyrrole-2(1H)-carboxamide]
16 | – | 404 | Cc1ccc(N2C[C@H]3CN(C(=O)N[C@@H]4[C@@H](N5CCN(C(C)C)CC5)CCCC4(F)F)C[C@H]3C2)cc1 [Example 23, (3aR,6aS)—N-{(1R,6S)-2,2-difluoro-6-[4-(propan-2-yl)piperazin-1-yl]cyclohexyl}-5-(4-methylphenyl)hexahydropyrrolo[3,4-c]pyrrole-2(1H)-carboxamide]
17 | 446 | – | Cc1ccccc1[C@@H]1C[C@@H]2CN(C(=O)N[C@@H]3[C@@H](N4CCN(C(C)C)CC4)CCCC3(F)F)C[C@@H]2C1 [Example 14, (3aR,5R,6aS)—N-{(1R,6S)-2,2-difluoro-6-[4-(propan-2-yl)piperazin-1-yl]cyclohexyl}-5-(2-methylphenyl)hexahydropenta[c]pyrrole-2(1H)-carboxamide]
18 | – | 399 | CC(C)N1CCN([C@H]2CCCC(F)(F)[C@@H]2NC(=O)N2C[C@@H]3CN(c4cccc(F)c4)C[C@@H]3C2)CC1 [Example 22, (3aR,6aS)—N-{(1R,6S)-2,2-difluoro-6-[4-(propan-2-yl)piperazin-1-yl]cyclohexyl}-5-(3-fluorophenyl)hexahydropyrrolo[3,4-c]pyrrole-2(1H)-carboxamide]
19 | – | 345 | CC(C)N1CCN([C@H]2CCCC(F)(F)[C@@H]2NC(=O)N2C[C@@H]3CN(c4ccccn4)C[C@@H]3C2)CC1 [Example 20, (3aR,6aS)—N-{(1R,6S)-2,2-difluoro-6-[4-(propan-2-yl)piperazin-1-yl]cyclohexyl}-5-(pyridin-2-yl)hexahydropyrrolo[3,4-c]pyrrole-2(1H)-carboxamide]
20 | 491 | – | CC(C)N1CCN([C@H]2CCCC(F)(F)[C@@H]2NC(=O)N2C[C@H]3C[C@@H](c4cccc(F)c4)C[C@H]3C2)CC1 [Example 16, (3aR,5R,6aS)—N-{(1R,6S)-2,2-difluoro-6-[4-(propan-2-yl)piperazin-1-yl]cyclohexyl}-5-(3-fluorophenyl)hexahydropenta[c]pyrrole-2(1H)-carboxamide]
